Read-outs that look alike come from different tables or passages of the source.
What was measured:
[1] = system: Lewis lung carcinoma (LLC) lung metastasis; experiment: Lewis lung carcinoma lung metastasis model; format: in vivo, C57 black mice; parameters: Inhibitory activity in vivo, LLC tumor model (as % of total inhibition): reference not given here; details: for Inhibitory activity in vivo, LLC tumor model (as % of total inhibition): 25 μg/gram, LLC murine tumor model, lung metastasis
Method: (vii) Lewis lung carcinoma tumor assay. Murine Lewis lung carcinoma (LLC) D122 cells (1×10^6 cells/[…] PBS) were injected into the foot pads of 10-week old C57 black mice (O'Reilly et al, 1994). Twenty five μg/g of body mass of porphyrin or corrole compound dissolved in PBS were injected IP twice a week to the treated group, and tumor size was measured periodically in order to follow primary tumor formation. In order to evaluate inhibition of lung metastasis by porphyrin or corrole compound, the primary tumors were allowed to develop over a period of six weeks to a volume of approximately 8 mm^3; after which the tumors were removed and metastases were allowed to develop for four weeks. During this time the treated group received 25 μg/g of body mass of porphyrin or corrole compound IP twice a week. Subsequently the mice were sacrificed, dissected and the lungs removed and photographed. The extent of lung metastasis was measured by weighing the lungs.
After establishing the capacity of P1 to inhibit primary tumor growth, the capacity of P1 to inhibit lung metastasis formation was measured as described in Methods, section (vi). Mice were injected with LLC cells (200,000 cells per mouse) into the foot pad and primary tumors were allowed to develop over a period of 3 to 4 weeks to a volume of approximately 8 mm^3. Subsequently, primary tumors were removed through amputation and lung metasases were allowed to develop for four weeks before the mice were sacrificed. The extent of lung metastasis at this point was examined by gross morphological examination and by determining the gain in lung weight. […] In order to quantitate the results from these experiments, the lungs from all mice were weighed and evaluated for the extent of metastatic growth.

[2] = target: T1, FGFR-1 alkaline phosphatase fusion protein (FRAP) (Mus musculus, UniProt P16092); experiment: Binding of soluble FGFR-1 alkaline phosphatase fusion protein (FRAP) to bFGF immobilized on heparin (Screen AP assay); details: binding of FGF to FGFR; Methods section (ii); read-out: Screen AP assay (IC50)
T1 construct: soluble FGFR-1 ectodomain alkaline phosphatase fusion protein (FRAP); made in house; host or cells: NIH 3T3 cells (conditioned medium)
T1 sequence (P16092 22-376 limits assumed): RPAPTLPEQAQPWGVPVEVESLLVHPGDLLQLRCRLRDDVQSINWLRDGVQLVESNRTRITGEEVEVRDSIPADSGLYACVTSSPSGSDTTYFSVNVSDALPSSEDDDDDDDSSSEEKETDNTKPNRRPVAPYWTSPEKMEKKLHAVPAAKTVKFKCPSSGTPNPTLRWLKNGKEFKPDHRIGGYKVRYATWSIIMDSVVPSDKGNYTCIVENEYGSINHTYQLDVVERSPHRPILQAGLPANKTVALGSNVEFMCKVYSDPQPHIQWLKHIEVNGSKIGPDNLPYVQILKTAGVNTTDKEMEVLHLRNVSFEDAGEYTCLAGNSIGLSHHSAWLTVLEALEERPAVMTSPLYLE
Method: (ii) Binding of soluble FGFR-1 alkaline phosphatase fusion protein (FRAP) to immobilized bFGF. […] The end-point of the assay measured enzymatically the formation of FGF-receptor complexes quantitated by the specifically associated alkaline phosphatase (AP) catalyzed chromogenic product.
Subsequently, 200 μl of FRAP condition medium and porphyrin/corrole compound were added and incubated together for 2 h.
In order to identify inhibitors of FGF-FGFR interactions, an assay for testing FGFR-ligand binding was developed. The system is composed of bFGF bound to a heparin matrix to which soluble FGFR-1 ectodomain alkaline phosphatase fusion protein (FRAP) and the screened compounds are added (see Methods, section (ii)).

[3] = target: T2, soluble FGFR-1 (FRAP) (Mus musculus, UniProt P16092); experiment: Binding of 125I-bFGF to immobilized soluble FGFR-1 (FRAP), cell-free
T2 sequence (P16092 22-376 limits assumed): T1 sequence (P16092 22-376 limits assumed)
Description: First we utilized a cell-free system, measuring the binding of radiolabeled bFGF to a dimeric soluble FGFR-1 fused to alkaline phosphatase. […] As a: second experimental model, we used CHO cells deficient in heparan sulfate and genetically engineered to express FGFR-1 (Methods, section (iv)).

[4] = target: T3, FGFR-1 (Mus musculus, UniProt P16092); experiment: Binding of 125I-bFGF to CHO cells expressing FGFR-1
T3 sequence (P16092 22-822): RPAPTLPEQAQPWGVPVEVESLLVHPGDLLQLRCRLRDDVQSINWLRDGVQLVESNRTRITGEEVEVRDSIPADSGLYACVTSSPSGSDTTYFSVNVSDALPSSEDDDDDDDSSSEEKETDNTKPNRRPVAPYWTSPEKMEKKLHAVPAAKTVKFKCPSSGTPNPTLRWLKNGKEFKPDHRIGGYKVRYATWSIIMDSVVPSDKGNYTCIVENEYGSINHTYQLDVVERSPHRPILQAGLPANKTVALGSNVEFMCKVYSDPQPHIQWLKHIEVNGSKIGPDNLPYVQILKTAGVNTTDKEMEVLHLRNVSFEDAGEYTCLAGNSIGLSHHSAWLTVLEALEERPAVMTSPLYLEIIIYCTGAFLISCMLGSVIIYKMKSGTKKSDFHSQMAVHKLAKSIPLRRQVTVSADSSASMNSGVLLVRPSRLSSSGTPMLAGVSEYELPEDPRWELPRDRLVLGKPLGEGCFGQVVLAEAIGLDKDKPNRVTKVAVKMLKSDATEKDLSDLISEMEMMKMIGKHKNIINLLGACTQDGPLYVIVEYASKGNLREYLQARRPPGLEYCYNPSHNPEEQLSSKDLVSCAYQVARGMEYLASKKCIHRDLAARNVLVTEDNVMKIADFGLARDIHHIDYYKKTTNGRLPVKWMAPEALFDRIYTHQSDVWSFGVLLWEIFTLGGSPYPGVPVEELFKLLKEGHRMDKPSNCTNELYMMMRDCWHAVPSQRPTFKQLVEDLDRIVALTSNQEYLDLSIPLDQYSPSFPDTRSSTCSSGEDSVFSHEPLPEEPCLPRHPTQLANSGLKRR
Description: First we utilized a cell-free system, measuring the binding of radiolabeled bFGF to a dimeric soluble FGFR-1 fused to alkaline phosphatase. The soluble FRAP was immobilized using an anti-alkaline phosphatase antibody prebound to agarose-protein A beads (see Methods, section (iii)). As a: second experimental model, we used CHO cells deficient in heparan sulfate and genetically engineered to express FGFR-1 (Methods, section (iv)).

[5] = target: T3, FGFR-1; experiment: Covalent cross-linking of 125I-bFGF to CHO cells transfected with FGFR-1; format: binding; parameters: expressed in transfected cells; host or cells: CHO cells deficient in heparan sulfate; details: FIG. 2
Method: Binding of ^125I-bFGF to confluent monolayers of PGFR-1 expressing CHO cells or ^125I-FGF9 to FGFR-3 expressing CHO cells, was performed as described in Methods, section (iv), in the presence or absence of P1 (Inhibitor). After 90 min, disuccinylimidyl suberate [DSS]
(iv) Binding of ^125I-bFGF and ^125I-FGF9 to cells. Confluent cultures of CHO cells expressing FGFR-1(Yayon et al, 1991) or FGFR-3 (Hecht et al, 1995) in 24-well plates (Falcon) were precooled and washed twice with cold DMEM supplemented with 20 mM Hepes (pH 7.5) and 0.1% bovine serum albumin (DMEM/BSA). They were then incubated for 1.5 h at 4° C. with ^125I-bFGF (2 ng/ml) and increasing concentrations of porphyrin/corrole compound. The binding medium was discarded and the cells were washed once with ice-cold DMEM/BSA and twice with cold PBS (pH 7.5) containing 1.6M NaCl. […] Non-specific binding was determined in the presence of a 100-fold excess of unlabeled bFGF.
In order to unequivocally determine the specificity of the binding inhibition, chemical cross-linking of ^125I-bFGF and ^125I-FGF9 to CHO cells transfected with FGFR-1 and FGFR-3, respectively, was carried out as described in Methods, section (iv), in the absence or presence of increasing concentrations of P1.

[6] = read-out: Soluble receptor binding (IC50), binding of FGF to FGFR, Methods section (iii)
[7] = read-out: Cellular receptor binding (IC50), binding of FGF to FGFR, Methods section (iv)

Compound | Inhibitory activity in vivo, LLC tumor model (as % of total inhibition) [1] | IC50 [2] | IC50 [4] | other results
C[n+]1ccccc1-c1c2nc(c(-c3cccc[n+]3C)c3ccc([nH]3)c(-c3cccc[n+]3C)c3nc(c(-c4cccc[n+]4C)c4ccc1[nH]4)C=C3)C=C2 (single isomer, unassigned) [Compound P7, 5,10,15,20-Tetrakis-(N-methyl-2-pyridylium)-21H,23H-porphine tetraiodide] | 90% | – | – | –
COc1ccc(-c2c3nc(c(-c4ccc(OC)cc4)c4ccc([nH]4)c(-c4ccc(OC)cc4)c4nc(c(-c5ccc(OC)cc5)c5ccc2[nH]5)C=C4)C=C3)cc1 [Compound P3, 5,10,15,20-Tetrakis(4-methoxyphenyl)-21H,23H-porphine] | – | > 10 µM | – | –
C[N+](C)(C)c1ccc(-c2c3nc(c(-c4ccc([N+](C)(C)C)cc4)c4ccc([nH]4)c(-c4ccc([N+](C)(C)C)cc4)c4nc(c(-c5ccc([N+](C)(C)C)cc5)c5ccc2[nH]5)C=C4)C=C3)cc1 [Compound P5, 5,10,15,20-Tetrakis[4-(trimethylammonio)phenyl]-21H,23H-porphine tetra-p-tosylate] | 75% | 0.1 µM | 1.8 µM | IC50 [3]: 0.9 µM
C[n+]1ccc(-c2c3nc(c(-c4cc[n+](C)cc4)c4ccc([nH]4)c(-c4cc[n+](C)cc4)c4nc(c(-c5cc[n+](C)cc5)c5ccc2[nH]5)C=C4)C=C3)cc1 [Compound P8, 5,10,15,20-Tetrakis-(N-methyl-4-pyridylium)-21H,23H-porphine tetraiodide] | 90% | 0.095 µM | – | IC50 ([3]; Soluble receptor binding (IC50), binding of FGF to FGFR, Methods section (iii)): 0.95 µM; IC50 ([4]; Cellular receptor binding (IC50), binding of FGF to FGFR, Methods section (iv)): 1.3 µM
C[n+]1ccc(C2=Cc3cc4[nH]c(cc5nc(cc6[nH]c(cc2n3)cc6-c2cc[n+](C)cc2)C=C5c2cc[n+](C)cc2)cc4-c2cc[n+](C)cc2)cc1 [Compound P10, 3,8,13,18-Tetrakis(N-methyl-4-pyridylium)-21H,23H-porphine tetraiodide] | – | 0.08 µM | – | IC50 [3, 6]: 0.85 µM; IC50 [4, 7]: 1.9 µM
O=C(O)c1ccc(-c2c3nc(c(-c4ccc(C(=O)O)cc4)c4ccc([nH]4)c(-c4ccc(C(=O)O)cc4)c4nc(c(-c5ccc(C(=O)O)cc5)c5ccc2[nH]5)C=C4)C=C3)cc1 [Compound P11, 5,10,15,20-Tetrakis(4-carboxylatophenyl) 21H,23H-porphine tetraammonium] | – | 0.5 µM | > 10 µM | –
C[n+]1cccc(-c2c3nc(c(-c4ccc[n+](C)c4)c4ccc([nH]4)c(-c4ccc[n+](C)c4)c4nc(c(-c5ccc[n+](C)c5)c5ccc2[nH]5)C=C4)C=C3)c1.Cc1ccc(S(=O)(=O)[O-])cc1.Cc1ccc(S(=O)(=O)[O-])cc1.Cc1ccc(S(=O)(=O)[O-])cc1.Cc1ccc(S(=O)(=O)[O-])cc1 [Compound P12, 5,10,15,20-Tetrakis(N-methyl-3-pyridylium)-21H,23H-porphine tetra-p-tosylate] | 0% | – | – | IC50 [3, 6]: 10 µM; IC50 [4, 7]: > 10 µM
C[n+]1cccc(-c2c3nc(c(-c4ccc[n+](C)c4)c4ccc([nH]4)c(-c4ccc[n+](C)c4)c4nc(c(-c5ccc[n+](C)c5)c5ccc2[nH]5)C=C4)C=C3)c1 [Compound P13, 5,10,15,20-Tetrakis(N-methyl-3-pyridylium)-21H,23H-porphine tetraiodide] | – | – | > 10 µM | IC50 [3]: > 10 µM
C[n+]1ccc(-c2c3nc(c(-c4c(F)c(F)c(F)c(F)c4F)c4ccc([nH]4)c(-c4cc[n+](C)cc4)c4nc(c(-c5c(F)c(F)c(F)c(F)c5F)c5ccc2[nH]5)C=C4)C=C3)cc1 [Compound P17, 5,15-Bis(pentafluorophenyl)-10,20-bis(N-methyl-4-pyridylium)-21H,23H-porphine diiodide] | 40% | – | 0.03 µM | IC50 [3]: 0.02 µM
C[n+]1ccc(-c2c3nc(c(-c4cc[n+](C)cc4)c4ccc([nH]4)c(-c4c(F)c(F)c(F)c(F)c4F)c4nc(c(-c5c(F)c(F)c(F)c(F)c5F)c5ccc2[nH]5)C=C4)C=C3)cc1 [Compound P18, 5,10-Bis(pentafluorophenyl)-15,20-bis(N-methyl-4-pyridylium)-21H,23H-porphine diiodide] | 50% | – | 0.1 µM | IC50 [3]: 0.075 µM
C[n+]1ccc(-c2c3nc(c(-c4cc[n+](C)cc4)c4ccc([nH]4)c(-c4c(F)c(F)c(NCCCN)c(F)c4F)c4nc(c(-c5cc[n+](C)cc5)c5ccc2[nH]5)C=C4)C=C3)cc1 [Compound P19] | – | 0.1 µM | – | IC50 [4, 7]: 2 µM
C[n+]1ccccc1-c1c(F)c(F)c(-c2c3nc(c(-c4c(F)c(F)c(-c5cccc[n+]5C)c(F)c4F)c4ccc([nH]4)c4ccc([nH]4)c(-c4c(F)c(F)c(-c5cccc[n+]5C)c(F)c4F)c4ccc2[nH]4)C=C3)c(F)c1F [Compound P21, 5,10,15-Tris[2,3,5,6-tetrafluorophenyl-4-(N-methyl-2-pyridylium)]-21H,23H-corrole triiodide] | 200% | – | – | Inhibition of lung metastasis in LLC model, in words ([1]; 25 μg/g of body mass IP): highly active in vivo; Concentration inhibiting lung metastasis formation in vivo ([1]; mouse, in vivo): 5 mg/kg body weight; Inhibition of bFGF binding to immobilized FRAP, in words ([3]; FIG. 8B): inhibit bFGF binding in vitro
Cc1ccc(C(=O)Nc2ccc(S(=O)(=O)O)c3cc(S(=O)(=O)O)cc(S(=O)(=O)O)c23)cc1NC(=O)c1cccc(NC(=O)Nc2cccc(C(=O)Nc3cc(C(=O)Nc4ccc(S(=O)(=O)O)c5cc(S(=O)(=O)O)cc(S(=O)(=O)O)c45)ccc3C)c2)c1 [Suramin, reference compound] | – | – | – | Inhibition of bFGF-receptor complex formation (cross-linking), in words [5]: demonstrated FGF receptor binding inhibition
Tetrakis(4-cumyloxyphenoxy)phthalocyanine [Compound P4] | – | > 10 µM | – | –

Source: patent publication US6730666B1, “Pharmaceutical compositions comprising porphyrins and some novel porphyrin derivatives” (Yeda Research and Development Co. Ltd., priority 1998, dated 2004)
